Assay results: patent US11286258B2, “Nature-inspired anticancer and antibacterial motifs and pharmaceutical composition thereof” (University of Sharjah, priority 2020, dated 2022)
Converted amounts (≈) assume the structure as drawn.

Assays:
MRSA-ATCC700699 (VISA) = test: MIC broth microdilution, MRSA ATCC700699 (VISA); type: cell-based, Staphylococcus aureus; details: for MIC: Staphylococcus aureus, strain intermediately resistant to vancomycin, overnight incubation, read-out: MIC MRSA-ATCC700699 (VISA)
Protocol: (§1) Antibacterial activity: The compounds were tested for the minimum inhibitory concentrations (MIC), which is the lowest concentration of a chemical required to inhibit visible microbial growth following overnight incubation. MIC values were determined using broth microdilution method according to the Clinical and Laboratory Standards Institute guidelines (CLSI, 2015, M07-A10). Mueller-Hinton broth was used as a culture medium in all the experiments. Exponentially growing bacterial cells were prepared in Mueller-Hinton broth at a concentration of approximately 5×10^5 CFU/mL. Two-fold serial dilutions of the test compound (8 concentrations ranged between 100-0.78 μg/mL) were tested. […] In each experiment, solvent (DMSO) was used as a negative control, un-treated control (composing of bacteria in Mueller-Hinton broth) was used as a growth control, blank (culture media alone) was used as sterility control. The 96-well microplate with the test compounds was incubated overnight at 37° C. Turbidity in wells indicated bacterial growth.
(§2) The compounds were tested on six MDR Gram-positive bacteria including three clinical isolates of methicillin-resistant Staphylococcus aureus (MRSA-1, MRSA-2 and MRSA-3) and three reference MRSA strains (ATCC33591, ATCC33592 and ATCC700699). They were also tested on three MDR Gram-negative bacteria including New Delhi metallo-beta-lactamase (NDM-1) positive, carbapenem-resistant E. coli (ATCC BAA2469), extended-spectrum beta-lactamase (ESBL) producing, colistin-resistant E. coli (CDC-AR-0346) and carbapenem-resistant Acinetobacter baumannii (ATCC BAA1605), in addition to two non-MDR bacteria from the same species, namely E. coli (ATCC 25922) Acinetobacter baumannii (ATCC 19606).

MCF-7 = test: MTT cell viability, MCF-7; type: cell-based; details: Homo sapiens, MCF7; breast cancer; 48 h of drug treatment; average of three experiments
From the text: (§3) Cell culture: In this study five different cancer cell lines were used, human lung carcinoma (A549), human breast adenoma (MCF-7), Cervical carcinoma (Hela), hepatocellular carcinoma (Hep3B), and colorectal adenocarcinoma (HCT-116). These cells were obtained from the European Collection of Cell Cultures (ECACC, UK). Hep3B cells were maintained in Dulbecco's Modified Eagle Medium (DMEM: Sigma-Aldrich), and the four other cell lines were maintained in Roswell Park Memorial Institute medium (RPMI, Sigma-Aldrich, St. Louis, Mo., USA), which was supplemented with 10% fetal bovine serum (FBS, Sigma-Aldrich) and 1% penicillin/streptomycin (Sigma-Aldrich). Cells were incubated all the time at 37° C. in a humidified atmosphere of 5% CO2. Cell viability studies: Cell viability was assessed using the MTT assay as described before. In brief, all cancer cell lines were seeded at a density of 4×10^4/well in 96 well flat-bottom plates. After 24 h from seeding, cells were treated with the synthesized compounds and left for an incubation period of 48 h. Upon reaching the indicated time point, the media was removed and replaced with 200 μL fresh media containing 0.5 mg/mL of MTT tetrazolium dye (Sigma-Aldrich). Cells were then incubated with MTT solution for 2 h at 37° C. The resultant formazan crystals were dissolved in 200 μl/well of DMSO and absorbance was measured at 570 nm using a microplate reader (Thermo Scientific).

[1] = test system: E. coli ATCC BAA2469 (NDM-1 carbapenem-resistant); test: MIC broth microdilution, E. coli ATCC BAA2469; type: cell-based, Escherichia coli; details: overnight incubation; for MIC: Escherichia coli, ATCCBAA2469, MDR; for MIC E. coli ATCC BAA2469 (NDM-1 carbapenem-resistant): MDR
Protocol: as §1, §2

HELA = test: MTT cell viability, HELA; type: cell-based; details: Homo sapiens, cervical cancer, 48 h of drug treatment, average of three experiments
From the text: as §3

[2] = test system: normal epithelial cells (HMEC); test: Cell viability, normal epithelial cells; type: cell-based; details: Homo sapiens, 48 h of drug treatment, average of three experiments
Protocol: Cell viability studies: Cell viability was assessed using the MTT assay as described before. In brief, all cancer cell lines were seeded at a density of 4×10^4/well in 96 well flat-bottom plates. After 24 h from seeding, cells were treated with the synthesized compounds and left for an incubation period of 48 h. Upon reaching the indicated time point, the media was removed and replaced with 200 μL fresh media containing 0.5 mg/mL of MTT tetrazolium dye (Sigma-Aldrich). Cells were then incubated with MTT solution for 2 h at 37° C. The resultant formazan crystals were dissolved in 200 μl/well of DMSO and absorbance was measured at 570 nm using a microplate reader (Thermo Scientific).

MRSA-ATCC33592 = test: MIC broth microdilution, MRSA ATCC33592; type: cell-based, Staphylococcus aureus; details: Staphylococcus aureus; overnight incubation, Mueller-Hinton broth; read-out: MIC MRSA-ATCC33592
Protocol: as §1, §2

HEP3B = test: MTT cell viability, HEP3B; type: cell-based; details: Homo sapiens, liver cancer, 48 h of drug treatment, average of three experiments
From the text: as §3

MRSA-ATCC33591 = test: MIC broth microdilution, MRSA ATCC33591; type: cell-based, Staphylococcus aureus; details: Staphylococcus aureus; overnight incubation, Mueller-Hinton broth; read-out: MIC MRSA-ATCC33591
Protocol: as §1, §2

A549 = test: MTT cell viability, A549; type: cell-based; details: Homo sapiens, lung cancer, 48 h of drug treatment, average of three experiments
From the text: as §3

[3] = test system: MRSA-2 (clinical isolate); test: MIC broth microdilution, MRSA-2; type: cell-based, Staphylococcus aureus; details: Staphylococcus aureus, MRSA; overnight incubation, Mueller-Hinton broth; read-out: MIC MRSA-2 (clinical isolate)
Protocol: as §1, §2

E. coli ATCC25922 = test: MIC broth microdilution, E. coli ATCC25922; type: cell-based, Escherichia coli; details: Escherichia coli, ATCC25922; not MDR; overnight incubation
Protocol: as §1, §2

HCT-116 = test: MTT cell viability, HCT-116; type: cell-based; details: Homo sapiens, colon cancer, 48 h of drug treatment, average of three experiments
From the text: as §3

[4] = test system: MRSA-3 (clinical isolate); test: MIC broth microdilution, MRSA-3; type: cell-based, Staphylococcus aureus; details: Staphylococcus aureus, MRSA; overnight incubation, Mueller-Hinton broth; read-out: MIC MRSA-3 (clinical isolate)
Protocol: as §1, §2

[5] = test system: Acinetobacter baumannii ATCC BAA1605 (carbapenem-resistant); test: MIC broth microdilution, A. baumannii ATCC BAA1605; type: cell-based; details: Acinetobacter baumannii, ATCCBAA1605, MDR; overnight incubation
Protocol: as §1, §2

[6] = test system: E. coli CDC-AR-0346 (ESBL, colistin resistant); test: MIC broth microdilution, E. coli CDC-AR-0346; type: cell-based, Escherichia coli; details: for MIC: Escherichia coli, MDR, overnight incubation; for MIC fold higher than that of colistin: E. coli CDC-AR-0346, colistin 6.25 μg/mL
Protocol: as §1, §2

[7] = test system: Acinetobacter baumannii ATCC 19606; test: MIC broth microdilution, A. baumannii ATCC 19606; type: cell-based; details: Acinetobacter baumannii, ATCC19606; not MDR; overnight incubation
Protocol: as §1, §2

MIC (MRSA-ATCC700699 (VISA)) | IC50 (MCF-7) | MIC [1] | IC50 (HELA) | MIC (MRSA-ATCC33592) | IC50 (HEP3B) | MIC (MRSA-ATCC33591) | IC50 (A549) | MIC [3] | MIC (E. coli ATCC25922) | IC50 (HCT-116) | MIC [4] | MIC [5] | MIC [6] | MIC [7] | MIC times less than the MIC of vancomycin (MRSA-ATCC700699 (VISA); VISA strain ATCC 700699, vancomycin 8 μg/mL) | MIC E. coli ATCC BAA2469 (NDM-1 carbapenem-resistant) [1] | MIC fold higher than that of colistin [6] | SMILES | IC50 [2]
3.12 µg/mL (≈ 6.5 µM) | 3.57 ± 0.34 µM | 25 µg/mL (≈ 52 µM) | 4.514 ± 0.03 µM | 3.12 µg/mL (≈ 6.5 µM) | 2.276 ± 0.01 µM | 3.12 µg/mL (≈ 6.5 µM) | 5.491 ± 0.05 µM | 1.56 µg/mL (≈ 3.25 µM) | 6.25 µg/mL (≈ 13 µM) | 3.39 ± 0.04 µM | 1.56 µg/mL (≈ 3.25 µM) | 50 µg/mL (≈ 104 µM) | 50 µg/mL (≈ 104 µM) | 6.25 µg/mL (≈ 13 µM) |  |  |  | COc1ccc2c(c1)c1c3n2[C@@]2(C=C/C(=N\Nc4ccc(C(F)(F)F)cc4)CC2)CC[C@@H]3NCC1 [Compound 1k] | 28.01 ± 0.09 µM
6.25 µg/mL (≈ 13.4 µM) | 3.56 ± 0.1 µM | 25 µg/mL (≈ 53.6 µM) | 3.89 ± 0.07 µM | 6.25 µg/mL (≈ 13.4 µM) | 2.64 ± 0.03 µM | 6.25 µg/mL (≈ 13.4 µM) | 5.99 ± 0.03 µM | 6.25 µg/mL (≈ 13.4 µM) | 12.5 µg/mL (≈ 26.8 µM) | 1.96 ± 0.05 µM | 6.25 µg/mL (≈ 13.4 µM) | 25 µg/mL (≈ 53.6 µM) | 25 µg/mL (≈ 53.6 µM) | 12.5 µg/mL (≈ 26.8 µM) |  |  |  | FC(F)(F)Oc1ccc(N/N=C2\C=C[C@@]3(CC2)CC[C@@H]2NCCc4c2n3c2ccccc42)cc1 [Compound 1f] | 18.38 ± 0.05 µM
1.56 µg/mL (≈ 3.36 µM) | 3.72 ± 0.05 µM | 6.25 to 12.5 µg/mL (≈ 13.5 to 26.9 µM) | 3.5 ± 0.06 µM | 1.56 µg/mL (≈ 3.36 µM) | 2.56 ± 0.07 µM | 1.56 µg/mL (≈ 3.36 µM) | 4.897 ± 0.03 µM | 1.56 µg/mL (≈ 3.36 µM) | 12.5 µg/mL (≈ 26.9 µM) | 1.78 ± 0.7 µM | 1.56 µg/mL (≈ 3.36 µM) | 25 µg/mL (≈ 53.8 µM) | 12.5 µg/mL (≈ 26.9 µM) | 6.25 µg/mL (≈ 13.5 µM) | ~5 times | 12.5 µg/mL (≈ 26.9 µM) | 2 fold | Cc1ccc2c(c1)c1c3n2[C@@]2(C=C/C(=N\Nc4ccc(C(F)(F)F)cc4)CC2)CC[C@@H]3NCC1 [Compound 1h] | 11.53 ± 0.04 µM
3.12 µg/mL (≈ 6.94 µM) | 1.86 ± 0.03 µM | 6.25 to 12.5 µg/mL (≈ 13.9 to 27.7 µM) | 2.56 ± 0.58 µM | 3.12 µg/mL (≈ 6.94 µM) | 2.03 ± 0.08 µM | 3.12 µg/mL (≈ 6.94 µM) | 4.011 ± 0.02 µM | 1.56 µg/mL (≈ 3.46 µM) | 6.25 µg/mL (≈ 13.9 µM) | 0.487 ± 0.03 µM | 1.56 µg/mL (≈ 3.46 µM) | 12.5 µg/mL (≈ 27.7 µM) | 12.5 µg/mL (≈ 27.7 µM) | 6.25 µg/mL (≈ 13.9 µM) |  | 12.5 µg/mL (≈ 27.7 µM) | 2 fold | FC(F)(F)c1ccc(N/N=C2\C=C[C@@]3(CC2)CC[C@@H]2NCCc4c2n3c2ccccc42)cc1 (racemic) [Compound 1e] | 2.91 ± 0.07 µM
